Results on eight compounds are retold here after US8809315B2, “Combination medicaments for treating bacterial infections” (Basilea Pharmaceutica AG, priority 2007, dated 2014).

What all share (assay): MIC, broth microdilution (NCCLS M7-A6)
Holding throughout (type): cell-based
(In general: Broth dilution looks for growth in wells or tubes with falling amounts of substance.)

Assay [1] relates to Pseudomonas aeruginosa 6067 [DSM 18987]. The following applies: P. aeruginosa 6067; combinations of equal weights; IsoSensiTest Broth + 16 μg/mL 2,2'-bipyridyl. Here is the method: (§1) Antimicrobial activity of the compounds and of their combinations is determined against a selection of organisms according to standard procedures described by the National Committee for Clinical Laboratory Standards (NCCLS document M7-A6). […] In all cases the final concentration of DMSO incubated with the bacteria is less than or equal to 1%. […] Plates are incubated overnight at an appropriate temperature (30° C. or 37° C.) and optical densities assessed by eye. The MIC value is defined as the lowest compound concentration completely inhibiting visible growth of the test organism. Synergism tests are performed under the same conditions as described above but with two antimicrobial agents dispensed in checkerboard format [Isenberg H D (1992) Synergism testing: Broth microdilution checkerboard and broth macrodilution methods. In: Clinical Microbiology Procedures Manual vol. 1. Washington, D.C.: American Society for Microbiology. […] The strains used are: Pseudomonas aeruginosa 6067 (Accession number at the DSMZDeutsche Sammlung von Mikroorganismen and Zellkulturen GmbH, Inhoffenstr. 7 B, D-38124 Braunschweig: […] (DSM 18988), Achromobacter (formerly Alcaligenes) xylosoxidans QK3/96 (DSM 18991), Enterobacter aerogenes Zayakosky 5 (DSM 18992).

The test system of assay [2] is Achromobacter (formerly Alcaligenes) xylosoxidans QK3/96 [DSM 18991]. The settings on record: A. xylosoxidans QK3/96; combinations of equal weights; IsoSensiTest Broth + 16 μg/mL 2,2'-bipyridyl. Here is the method: as §1
In assay [3] the test system is Pseudomonas aeruginosa (67/2B)2R.A. [DSM 18988]. The following applies: P. aeruginosa (67/2B)2R.A.; combinations of equal weights; IsoSensiTest Broth + 16 μg/mL 2,2'-bipyridyl. How it is done: as §1
Assay [4] has as its system Enterobacter aerogenes Zayakosky 5 [DSM 18992]. The settings on record: E. aerogenes Zayakosky 5; combinations of equal weights; IsoSensiTest Broth + 16 μg/mL 2,2'-bipyridyl. Here is the method:
as §1

Take `C[C@@H](O)[C@H]1C(=O)N2C(C(=O)O)=C(S[C@@H]3CN[C@H](C(=O)Nc4cccc(C(=O)O)c4)C3)[C@H](C)[C@H]12` [Ertapenem]: the “Minimum Inhibitory Concentration” value in assay [1], in assay [2], in assay [3] and in assay [4] was >32 mg/L throughout.

Consider `CC1(C)[C@H](NC(=O)/C(=N\OCc2cc(=O)c(O)cn2O)c2csc(N)n2)C(=O)N1OS(=O)(=O)O` [Compound of formula I, (3S)-3-{(2Z)-2-(2-amino(1,3-thiazol-4-yl))-3-[(1,5-dihydroxy-4-oxo(2-hydropyridyl))methoxy]-3-azaprop-2-enoylamino}-4,4-dimethyl-2-oxoazetidinyl hydroxysulfonate], for which the “Minimum Inhibitory Concentration” value in assay [1] is 16 mg/L; in assay [2] it was 16 mg/L; in assay [3] it was 32 mg/L; in assay [4], 16 mg/L.

For the compound `C[C@H]1[C@H](NC(=O)/C(=N/OCc2cc(=O)c(O)cn2O)c2cccs2)C(=O)N1S(=O)(=O)O` [Compound B], the “Minimum Inhibitory Concentration” value in assay [1], in assay [2], in assay [3] and in assay [4] was >64 mg/L in each case.

As for `C[C@H]1[C@H](NC(=O)/C(=N\OCc2cc(=O)c(O)cn2O)c2cccs2)C(=O)N1S(=O)(=O)O` [Compound A, (3S)-trans-3-[(E)-2-(2-thienyl)-2-{(1,5-dihydroxy-4-pyridon-2-ylmethoxy)imino}-acetamido]-4-methyl-2-oxazetidine-1-sulfonic acid], the “Minimum Inhibitory Concentration” value in assay [1], in assay [2], in assay [3] and in assay [4] was >64 mg/L in each case.

Consider `C[C@@H](O)[C@H]1C(=O)N2C(C(=O)O)=C(SCCN=CN)C[C@H]12` [Imipenem], for which the “Minimum Inhibitory Concentration” value is on record as 4 mg/L in assay [1], 4 mg/L in assay [2], 16 mg/L in assay [3] and 32 mg/L in assay [4].

In the case of `C[C@@H](O)[C@H]1C(=O)N2C(C(=O)O)=C(S[C@@H]3CN[C@H](CNS(N)(=O)=O)C3)[C@H](C)[C@H]12` [Doripenem], the “Minimum Inhibitory Concentration” value in assay [1] turned out to be 16 mg/L; in assay [2], 16 mg/L; in assay [3], 4 mg/L; in assay [4], 8 mg/L.

As for `C[C@@H](O)[C@H]1C(=O)N2C(C(=O)O)=C(S[C@@H]3CN[C@H](C(=O)N(C)C)C3)[C@H](C)[C@H]12` [Meropenem], the “Minimum Inhibitory Concentration” value in assay [1] was 16 mg/L; in assay [2], 16 mg/L; in assay [3], 4 mg/L; in assay [4], 16 mg/L.

In the case of `C[C@H]1[C@H](NC(=O)/C(=N\OC(C)(C)C(=O)O)c2csc(N)n2)C(=O)N1S(=O)(=O)O` [Aztreonam, (Z)-2-[[[(2-amino-4-thiazolyl)[[(2S,3S)-2-methyl-4-oxo-1-sulfo-3-azetidinyl]-carbamoyl]methylene]amino]oxy]-2-methylpropionic acid], the “Minimum Inhibitory Concentration” value in assay [1] is given as 16 mg/L; in assay [2], >64 mg/L; in assay [3], 4 mg/L; in assay [4], 64 mg/L.
